The record followed here is ChEMBL document CHEMBL4130531 (ACS Med Chem Lett, 2017).

Values after ≈ are worked out from the molar mass of the structure shown.

Data set [1] in a line: Ratio of drug level in brain to plasma in C57BL/6 mouse at 30 mg/kg, po measured at 1 hr by HPLC-MS analysis. The following applies: brain and plasma, read-out: BPR. Type of data set: ADME, organism-based.
Data set [2] can be described thus: Ratio of drug level in brain to plasma in Sprague-Dawley rat at 5 mg/kg, iv by HPLC-MS analysis. It counts as ADME, organism-based. The note with it: brain and plasma, read-out: BPR.
Data set [3] can be described thus: AUC in Sprague-Dawley rat plasma at 5 mg/kg, iv by HPLC-MS analysis. It counts as ADME, organism-based.
Data set [4] in a line: AUC in Sprague-Dawley rat brain at 5 mg/kg, iv by HPLC-MS analysis. Type of data set: ADME, organism-based.
Data set [5] in a line: AUC (0 to 48 hrs) in HSD athymic nude mouse xenografted with human HCHZ2H1 cells at 200 mg/kg, po administered as single dose by LC-MS/MS analysis. It counts as ADME, organism-based. Also on record: dose 200 mg/kg, time < 48 hr, route oral. The following applies: in vivo.
A short description of data set [6]: AUC in Sprague-Dawley rat at 10 mg/kg, po by HLPC-MS analysis. The following applies: in vivo. It counts as ADME, organism-based.
Data set [7] can be described thus: Cmax in HSD athymic nude mouse xenografted with human HCHZ2H1 cells at 200 mg/kg, po administered as single dose by LC-MS/MS analysis. It counts as ADME, organism-based. Also on record: dose 200 mg/kg, route oral. The following applies: in vivo. In general terms: A xenograft is tissue or cells of one species grown in another, often human tumour cells in immunodeficient mice.

Data set [8] deals with Mus musculus. Kind of data set: Unbound AUC (0 to 48 hrs) in HSD athymic nude mouse xenografted with human HCHZ2H1 cells at 200 mg/kg, po administered as single dose by LC-MS/MS analysis. Type of data set: ADME, organism-based. The following applies: in vivo.
The subject of data set [9] is Mus musculus. Kind of data set: Unbound Cmax in HSD athymic nude mouse xenografted with human HCHZ2H1 cells at 200 mg/kg, po administered as single dose by LC-MS/MS analysis. The note with it: in vivo. It counts as ADME, organism-based.
Data set [10] has as its system Mus musculus. Kind of data set: Time at which unbound plasma concentration stays above cellular IDH1 R132H mutant inhibitory IC50 in HSD athymic nude mouse xenografted with human HCHZ2H1 cells. It counts as ADME, organism-based. The note with it: in vivo.
Data set [11] is described as follows: AUC (0 to 8 hrs) in nude mouse xenografted with human HMEX2838 cells at 30 mg/kg, po administered via gavage as single dose by LC-MS/MS analysis. It counts as ADME, organism-based. Also on record: dose 30 mg/kg, time < 8 hr, route oral. The note with it: in vivo.
Data set [12] in a line: AUC (0 to 8 hrs) in nude mouse xenografted with human HMEX2838 cells at 100 mg/kg, po administered via gavage as single dose by LC-MS/MS analysis. It counts as ADME, organism-based. Also on record: time < 8 hr, dose 100 mg/kg, route oral. The note with it: in vivo.
A short description of data set [13]: AUC (0 to 24 hrs) in nude mouse xenografted with human HMEX2838 cells at 300 mg/kg, po administered via gavage as single dose by LC-MS/MS analysis. Type of data set: ADME, organism-based. Also on record: dose 300 mg/kg, time < 24 hr, route oral. The following applies: in vivo.
Data set [14] can be described thus: AUC (0 to 12 hrs) in nude mouse xenografted with human HMEX2838 cells at 30 mg/kg, po bid administered via gavage by LC-MS/MS analysis. Type of data set: ADME, organism-based. Also on record: time < 12 hr, dose 30 mg/kg, route oral. The note with it: in vivo.
Data set [15] is described as follows: AUC (0 to 12 hrs) in nude mouse xenografted with human HMEX2838 cells at 100 mg/kg, po bid administered via gavage by LC-MS/MS analysis. Type of data set: ADME, organism-based. Also on record: time < 12 hr, dose 100 mg/kg, route oral. The note with it: in vivo.
Data set [16] can be described thus: AUC (0 to 12 hrs) in nude mouse xenografted with human HMEX2838 cells at 300 mg/kg, po bid administered via gavage by LC-MS/MS analysis. Also on record: time < 12 hr, dose 300 mg/kg, route oral. It counts as ADME, organism-based. The note with it: in vivo.
Data set [17] can be described thus: Solubility of the compound at pH 6.8. Type of data set: physicochemical. The note with it: buffer.
Data set [18] is described as follows: Lipophilicity, log D of the compound at pH 7.4. It counts as physicochemical. The note with it: buffer.
The nature of data set [19]: Fraction absorbed of compound by PAMPA. The note with it: read-out: Fabs. Type of data set: ADME. (In general: In PAMPA a lipid-coated filter parts donor from acceptor wells.)
A short description of data set [20]: in vivo. The following applies: C57BL/6, mouse, brain and plasma, po, 30 mg/kg.
Data set [21] in a line: in vivo. The note with it: Sprague-Dawley, rat, brain and plasma, iv, 5 mg/kg.

What is called AUC is the area under the concentration-time curve, a measure of exposure. A low value points to low exposure. As usually defined, the AUC(0-t) is exposure summed from dosing to a finite time, without extrapolation to infinity. The Cmax is the maximum level reached in the sampled fluid or tissue. Broadly, the solubility is the dissolved amount per volume that the medium holds. The low end stands for little dissolved substance, the high end for much dissolved substance. What is called logD is the decadic logarithm of the distribution of all forms, ionised or not, between an organic phase and buffer at a given pH. High values mean a more lipophilic compound, low ones a more hydrophilic compound. In the case of `Cc1cc([C@H](C)Nc2nccc(N3C(=O)OC[C@@H]3[C@H](C)F)n2)ncc1-c1ccnc(C(F)(F)F)c1`, in data set [1], the Kp at 1 h stood at 0.29. Also, in data set [2], the Kp came to 0.61. The AUC turned out to be 5.5 µM·h in [3], 3.4 µM·h in [4] and 6.2 µM·h in [6]. The compound further registered an AUC(0-t) at 48 h in data set [5] of 149 µM·h. The compound also yielded a Cmax in data set [7] of 16.2 µM. This compound also had a fAUC in data set [8] of 17.3 µM·h. Besides, the fCmax in data set [9] stood at 1.88 µM. The compound also had a Time in [10] above 12 h. Further, the results for the AUC(0-t) at 8 h in [11] and in data set [12] were 10.1 µM·h and 71.9 µM·h, respectively. In data set [13], this compound returned an AUC(0-t) at 24 h of 212 µM·h. For the same compound, the AUC at 12 h in data set [14] is 5.4 µM·h; in [15] it was 19.2 µM·h; in [16], 88.9 µM·h. The compound further came in with a solubility in [17] of 130 µM (≈ 63.8 µg/mL). In data set [18], this compound gave a logD of 2.8. Besides, the Fa in data set [19] worked out at 99.3%. This compound displayed a Kp uu at 1 h in data set [20] of 0.17. In data set [21], this compound gave a Kp uu of 0.18.

For the compound `CC(C)[C@H]1COC(=O)N1c1ccnc(N[C@@H](C)c2ccc(-c3ccnc(C(F)(F)F)c3)cn2)n1`, the AUC in data set [6] was found to be 1.6 µM·h.

Consider `Cc1cc(-c2ccc([C@H](C)Nc3nccc(N4C(=O)OC[C@@H]4C(C)C)n3)nc2)ccn1`, for which the solubility in [17] was found to be 430 µM (≈ 180 µg/mL).

On to `Cc1cc(-c2cnc([C@H](C)Nc3nccc(N4C(=O)OC[C@@H]4C(C)C)n3)nc2)ccc1F`, for which, in data set [6], the AUC turned out to be 0.2 µM·h. Moreover, the pH-dependent lipophilicity (logD) in data set [18] came to 3.4.

In data set [17], `Cc1cc(-c2cnc([C@H](C)Nc3nccc(N4C(=O)OC[C@@H]4C(C)C)n3)cn2)ccc1F` came in with a solubility below 5 µM.
